Laboratory results as given in the NIST ThermoML archive (doi:10.1021/je300737t).

Tests used:
[1] = xn = mol fraction of the nth substance listed; conditions: 101 kPa, Liquid; for mass density: Pycnometric method
[2] = 101 kPa, Liquid; for mass density: Pycnometric method

CCCCOCCO [2-butoxyethan-1-ol] + O
[1]
Conditions | mass density, 298.15 K [kg/m3] | mass density, 303.15 K [kg/m3] | mass density, 308.15 K [kg/m3] | mass density, 313.15 K [kg/m3] | viscosity, 298.15 K [mPa·s] | viscosity, 303.15 K [mPa·s] | viscosity, 308.15 K [mPa·s] | viscosity, 313.15 K [mPa·s]
x1 = 0.017 | 993.26 | 990.82 | 988.89 | 985.94 | 1.284 | 1.131 | 0.9936 | 0.8871
x1 = 0.037 | 986.46 | 982.92 | 980.38 | 977.64 | 1.849 | 1.622 | 1.465 | 1.302
x1 = 0.061 | 976.33 | 974.23 | 971.37 | 968.64 | 2.45 | 2.161 | 1.916 | 1.754
x1 = 0.092 | 967.1 | 964.31 | 961.45 | 958.48 | 2.998 | 2.635 | 2.334 | 2.054
x1 = 0.132 | 948.1 | 944.74 | 941.59 | 937.57 | 3.918 | 3.394 | 2.921 | 2.539
x1 = 1 | 896.16 | 892.74 | 888.88 | 884.29 | 2.782 | 2.499 | 2.206 | 1.946

CCCCOCCO [2-butoxyethan-1-ol]
[2]
Conditions | mass density [kg/m3] | viscosity [mPa·s]
298.15 K | 896.16 | 2.782
303.15 K | 892.74 | 2.499
308.15 K | 888.88 | 2.206
313.15 K | 884.29 | 1.946
